Molecules are shown by their SMILES. Where “and” joins values, the source holds several entries; their conditions need not be identical. Identical values can stand only once.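 Assay format: 96-well plates, 48-hour exposure. GI50 is the concentration that inhibits growth by half. TGI denotes the concentration required for complete inhibition of growth.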

Common to all, as to experiment: inhibition of tumour cell growth, NCI panel, 48 h
The test system of assay [1] is A498 renal.
The subject of assay [2] is HCC-2998 colon.
The subject of assay [3] is HL-60(TB) leukemia.
In assay [4] the test system is HOP-92 NSCLC.
Assay [5] relates to K-562 leukemia.
For assay [6], the system named is OVCAR-4 ovarian.
The test system of assay [7] is OVCAR-5 ovarian.
In assay [8] the test system is SF-539 CNS.
In assay [9] the test system is SK-MEL-2 melanoma.
Assay [10] has as its system SK-OV-3 ovarian.

Take `COc1c(OC2OC(CO)C(O)C(O)C2O)cc2c(c1OC)-c1ccc(OC)c(=O)cc1[C@@H](NC(C)=O)CC2` (stereo partly drawn): the TGI in assay [1], in assay [2], in assay [3], in assay [4], in [5] and in [6] was above 100 µM in each case. Also, the TGI in [7], in [8], in [9] and in assay [10] was above 100 µM each time.
Consider `COC(=O)C(C(=O)C(=O)Nc1ccc(N)cc1[N+](=O)[O-])c1nc2ccc(Cl)cc2[nH]c1=O` (stereo not drawn), for which the TGI in assay [1], in [2], in assay [3], in assay [4], in assay [5] and in assay [6] was above 100 µM in each case. The TGI in assay [7], in assay [8], in [9] and in assay [10] was above 100 µM each time.
On to `CCCCCCC(=O)CC(=O)C(=O)Nc1ccccc1C`, for which the TGI in assay [1], in assay [2], in assay [3], in assay [4], in assay [5] and in assay [6] was above 100 µM in each case. For the same compound, the TGI in assay [7], in [8], in [9] and in [10] was above 100 µM each time.
As to `CCN1C(=O)N(CC)C2C1NN=c1s/c(=C\c3cnc(C)n3C)c(=O)n12` (stereo not drawn), the GI50 was 0.946 µM in assay [1]; 2.65 µM in assay [2]; 1.61 µM in assay [3]; 4.85 µM in [4]; 0.61 µM in [5]; 3.76 µM in assay [6]. The GI50 in assay [7] was 3.68 µM; in assay [8], 1.78 µM; in assay [9], 1.85 µM; in assay [10] it was 2.74 µM. Moreover, the TGI is 5.43 µM in [1]; 14.5 µM in [2]; 4.03 µM in [3]; 96.1 µM in assay [4]; above 100 µM in assay [5]; above 100 µM in assay [6]. The TGI in assay [7] is above 100 µM; in assay [8], 5.19 µM; in assay [9] it was 11.3 µM; in [10], above 100 µM.
In the case of `COC(=O)[C@]1(C)CC[C@]2(C)CC[C@]3(C)C(=CC(=O)[C@@H]4[C@@]5(C)CCC(=O)NC(C)(C)[C@@H]5CC[C@]43C)[C@@H]2C1`, the GI50 in assay [1] is 21.4 µM; in assay [2], 18.4 µM; in assay [3], 16.2 µM; in [4], 10.7 µM; in assay [5], 7.4 µM; in assay [6] it was 27.6 µM. Also, the GI50 in assay [7] was 21.3 µM; in assay [8], 14.6 µM; in assay [9], 21.6 µM; in [10], 24 µM. Further, the TGI was 46.4 µM in [1]; 38.7 µM in [2]; 41.6 µM in [3]; 24.2 µM in assay [4]; 66.5 µM in assay [5]; above 100 µM in assay [6]. For the same compound, the TGI in [7] was 38.9 µM; in assay [8], 28.6 µM; in assay [9], 95.3 µM; in [10] it was above 100 µM.
Take `COc1ccc(OC)c(/C=C/C(=O)c2ccc3cc(OC)ccc3c2)c1`: the GI50 in assay [1] was 12.2 µM; in assay [2], 0.795 µM; in assay [3] it was 4.93 µM; in [4] it was 12.4 µM; in assay [5], 6.46 µM; in assay [6] it was 10.8 µM. The GI50 in [7] is above 11.6 µM; in assay [9], above 14.9 µM; in assay [10], 1.04 µM. Further, the TGI in assay [1] is above 31.9 µM; in [2], 2.44 µM; in [3], above 39.4 µM; in assay [4] it was above 50 µM; in [5], above 50 µM; in assay [6] it was above 50 µM. In addition, the TGI in [7] was above 50 µM; in [8] it was above 12.6 µM; in [9], above 50 µM; in [10] it was 2.37 µM.
`O=C(CN1CCN(c2ccccn2)CC1)Nc1ccc(Cl)cc1C(=O)c1ccccc1Cl`: the GI50 is 24.5 µM in assay [1]; above 100 µM in [2]; 5.51 µM in assay [3]; 2.52 µM in assay [4]; 3.55 µM in [5]; 13.9 µM in assay [6]. The GI50 in [7] was above 100 µM; in assay [8], 45.9 µM; in [9] it was above 100 µM; in assay [10] it was above 100 µM. Further, the TGI in assay [1] was above 100 µM; in [2], above 100 µM; in assay [3], above 100 µM; in [4] it was 53.7 µM; in assay [5], above 100 µM; in assay [6] it was above 100 µM. Besides, the TGI in [7], in assay [8], in assay [9] and in assay [10] was above 100 µM each time.
Take `COc1cc[nH]c1/C=C1\C(=O)Nc2ccc([N+](=O)[O-])c(N3CC[C@@H](O)C3)c21`: the GI50 in [1] was 0.182 µM; in assay [2] it was 0.544 µM; in assay [3] it was 0.0831 µM; in [4], 0.544 µM; in [5], 0.577 µM; in [6], 0.488 µM. Further, the GI50 in assay [7] is 0.258 µM; in assay [8], 0.102 µM; in [9], 0.229 µM; in assay [10], 0.631 µM. Further, the TGI in assay [1] came out at 0.815 µM; in assay [2] it was 2 µM; in assay [3], 0.213 µM; in [4] it was 2.47 µM; in [5] it was 7.57 µM; in assay [6], 2.14 µM. Further, the TGI in assay [7] came to 3.97 µM; in assay [8], 0.386 µM; in assay [9], 0.688 µM; in [10], 8.16 µM.
Turning to `CC(=O)OC1(C#N)CC2OC1C1NC21` (stereo not drawn), the TGI in assay [1], in [2], in [3], in assay [4], in assay [5] and in assay [6] was above 100 µM in each case. For the same compound, the TGI in [7], in assay [8], in assay [9] and in assay [10] was above 100 µM throughout.
As for `NNC(=O)N/N=C1/C(=O)N(c2ccc(Cl)c(Cl)c2)C(=O)C(=O)C1c1nc2ccccc2o1` (stereo not drawn), the TGI in assay [1], in assay [2], in assay [3], in [4], in assay [5] and in assay [6] was above 100 µM in each case. Also, the TGI in assay [7], in assay [8], in assay [9] and in [10] was above 100 µM in each case.
On to `Cn1c(=O)c2[nH]cnc2n(C)c1=O.[CH2-]C(Cc1cccc2cc(C(=O)O)c(=O)oc12)OC.[Hg+2].[OH-]` (stereo not drawn), for which the GI50 in assay [1] is 18.7 µM; in assay [2], 23 µM; in assay [3] it was 30.5 µM; in assay [4] it was 15.6 µM; in assay [5], 18.9 µM; in assay [6], 17.9 µM. For the same compound, the GI50 in assay [7] is 18.6 µM; in assay [8], 14.6 µM; in assay [9], 17.4 µM; in assay [10], above 44 µM. Also, the TGI in assay [1] was 33 µM; in assay [2], 39.2 µM; in [3], 58.3 µM; in assay [4], 29.9 µM; in assay [5], 77.4 µM; in [6] it was 35.8 µM. Besides, the TGI in [7] is 32.7 µM; in assay [8], 29.8 µM; in assay [9] it was 31.5 µM; in [10], above 58.5 µM.
With `NC(N)=NC(N)=NCc1ccco1`, the GI50 is 190 µM and > 1250 µM in assay [1]; above 1250 µM in assay [2]; 390 µM in [3]; 116 µM in assay [4]; 264 µM in [5]; 316 µM in assay [6]. The GI50 in [7], in assay [8], in [9] and in assay [10] was above 1250 µM in each case. Moreover, the TGI in assay [1], in [2], in [3], in [5], in assay [6] and in assay [7] was above 1250 µM throughout. In addition, the TGI in assay [8], in assay [9] and in [10] was above 1250 µM in each case.
`CNCC1CCn2c(c(C3=C(c4cn(C)c5ccccc45)C(=O)NC3=O)c3ccccc32)C1` (stereo not drawn): the GI50 in assay [1] is 5.65 µM; in [2], 3.76 µM; in [3], 3.7 µM; in [4], 0.13 µM; in [5], 3.29 µM; in assay [6], 4.17 µM. Moreover, the GI50 in assay [7] was 3.07 µM; in assay [8], 3.69 µM; in [9], 3.33 µM; in assay [10], 5.18 µM. For the same compound, the TGI in assay [1] is 14.5 µM; in assay [2], 7.77 µM; in assay [3], 8.61 µM; in [4], 8.64 µM; in assay [5], 8.41 µM; in assay [6], 15.5 µM. Further, the TGI in [7] turned out to be 20.9 µM; in assay [8], 7.21 µM; in assay [9], 7.07 µM; in [10], 16.4 µM.
Regarding `CN/N=C(/CC(=O)c1sc(NNC(C)=O)nc1C)C(=O)Nc1ccc(OC)cc1OC`, the TGI in [1], in assay [2], in [3], in assay [4], in assay [5] and in assay [6] was above 100 µM in each case. For the same compound, the TGI in assay [7], in assay [8] and in [9] was above 100 µM throughout.
In the case of `O=C1C=C(OCC=C(Cl)Cl)C(=O)c2ccccc21`, the GI50 is above 86.2 µM in [1]; above 100 µM in assay [2]; 1.39 µM in [3]; 2.68 µM in assay [4]; 1.01 µM in assay [5]; 1.61 µM in assay [6]. Moreover, the GI50 in [7] is 8.92 µM; in assay [8], 43.9 µM; in [9] it was 2.34 µM; in assay [10], above 100 µM. Further, the TGI is above 100 µM in assay [1]; above 100 µM in assay [2]; 9.28 µM in assay [4]; above 23 µM in assay [5]; 3 µM in [6]; above 82.1 µM in assay [7]. The TGI in assay [8] and in assay [10] was above 100 µM each time.
As to `O=C1/C(=C/c2cccc(F)c2)CN(C(=O)C(Cl)Cl)C/C1=C\c1cccc(F)c1`, the GI50 is 0.628 µM in [1]; 0.272 µM in assay [2]; 0.218 µM in assay [3]; 0.499 µM in assay [4]; 0.0332 µM in assay [5]; 0.351 µM in [6]. The GI50 in [7] is 0.29 µM; in [8], 0.265 µM; in assay [9], 0.343 µM; in assay [10], 0.6 µM. The TGI was found to be 2.05 µM in assay [1]; 0.737 µM in [2]; 0.773 µM in [3]; 1.44 µM in assay [4]; 1.38 µM in [6]; 0.887 µM in assay [7]. Moreover, the results for the TGI in assay [8], in assay [9] and in assay [10] were 0.824 µM, 1.27 µM and 1.79 µM, respectively.
Consider `ClCCCN1CCCCC1CCl` (stereo not drawn), for which the TGI in [1], in [2], in [3], in assay [4], in assay [5] and in assay [6] was above 100 µM throughout. In addition, the TGI in assay [7], in [8], in [9] and in assay [10] was above 100 µM throughout.
In the case of `Cc1ccc(NC(=O)CC2C(=O)Nc3ccccc3S2(=O)=O)cc1C` (stereo not drawn), the TGI in [1], in [2], in [3], in [4], in [5] and in assay [6] was above 100 µM throughout. The TGI in assay [7], in assay [8] and in assay [9] was above 100 µM each time.

Source of the values: PubChem BioAssay (NCI).
